The target of test [1] is Sigma non-opioid intracellular receptor 1 (Homo sapiens, UniProt Q99720). The experiment in a line: Selectivity interaction (GPCR panel (PDSP screen)) EUB0000308b SIGMAR1.
Test [2] addresses T1, Serine/threonine-protein kinase ULK2 (Homo sapiens) (UniProt Q8IYT8).
T1 sequence (whole entry): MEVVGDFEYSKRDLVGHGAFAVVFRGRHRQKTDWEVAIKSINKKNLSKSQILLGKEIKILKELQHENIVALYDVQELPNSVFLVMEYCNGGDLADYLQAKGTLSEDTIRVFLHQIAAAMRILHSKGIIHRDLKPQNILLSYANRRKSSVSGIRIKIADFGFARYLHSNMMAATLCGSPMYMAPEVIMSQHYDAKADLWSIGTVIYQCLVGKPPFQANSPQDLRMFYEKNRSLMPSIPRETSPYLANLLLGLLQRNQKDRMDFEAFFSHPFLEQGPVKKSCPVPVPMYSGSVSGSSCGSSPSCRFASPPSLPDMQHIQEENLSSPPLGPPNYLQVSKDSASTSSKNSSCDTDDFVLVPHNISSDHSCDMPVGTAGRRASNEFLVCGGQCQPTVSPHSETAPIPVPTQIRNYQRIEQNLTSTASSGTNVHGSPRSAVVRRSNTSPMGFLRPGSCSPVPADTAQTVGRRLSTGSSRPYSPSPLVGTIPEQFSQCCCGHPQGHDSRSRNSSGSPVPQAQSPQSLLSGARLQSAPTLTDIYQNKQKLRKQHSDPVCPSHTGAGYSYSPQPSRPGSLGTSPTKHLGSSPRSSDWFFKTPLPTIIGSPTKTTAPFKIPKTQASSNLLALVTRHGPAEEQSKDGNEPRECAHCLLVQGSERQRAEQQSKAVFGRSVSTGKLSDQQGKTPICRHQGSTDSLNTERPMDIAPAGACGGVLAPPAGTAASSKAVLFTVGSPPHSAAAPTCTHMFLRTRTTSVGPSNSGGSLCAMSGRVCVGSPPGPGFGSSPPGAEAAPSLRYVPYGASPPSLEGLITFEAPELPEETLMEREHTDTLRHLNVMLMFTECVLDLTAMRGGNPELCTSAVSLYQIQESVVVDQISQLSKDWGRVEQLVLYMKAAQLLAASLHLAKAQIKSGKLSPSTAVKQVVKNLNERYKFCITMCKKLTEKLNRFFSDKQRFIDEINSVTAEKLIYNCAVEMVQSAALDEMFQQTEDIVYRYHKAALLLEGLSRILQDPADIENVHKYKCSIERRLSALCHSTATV
The experiment in a line: Selectivity interaction (KinomeScan (DiscoverX)) EUB0000308b ULK2. The following applies: at 1 µM.

For test [3], the target named is Sodium-dependent dopamine transporter (Homo sapiens, UniProt Q01959). Briefly: Selectivity interaction (CEREP panel (Eurofins, radioligand binding assay, enzymes, GPCRS, transporters, and ion channels)) EUB0000308b SLC6A3. The following applies: at 10 µM.
Sequence of Sodium-dependent dopamine transporter (Q01959 whole entry): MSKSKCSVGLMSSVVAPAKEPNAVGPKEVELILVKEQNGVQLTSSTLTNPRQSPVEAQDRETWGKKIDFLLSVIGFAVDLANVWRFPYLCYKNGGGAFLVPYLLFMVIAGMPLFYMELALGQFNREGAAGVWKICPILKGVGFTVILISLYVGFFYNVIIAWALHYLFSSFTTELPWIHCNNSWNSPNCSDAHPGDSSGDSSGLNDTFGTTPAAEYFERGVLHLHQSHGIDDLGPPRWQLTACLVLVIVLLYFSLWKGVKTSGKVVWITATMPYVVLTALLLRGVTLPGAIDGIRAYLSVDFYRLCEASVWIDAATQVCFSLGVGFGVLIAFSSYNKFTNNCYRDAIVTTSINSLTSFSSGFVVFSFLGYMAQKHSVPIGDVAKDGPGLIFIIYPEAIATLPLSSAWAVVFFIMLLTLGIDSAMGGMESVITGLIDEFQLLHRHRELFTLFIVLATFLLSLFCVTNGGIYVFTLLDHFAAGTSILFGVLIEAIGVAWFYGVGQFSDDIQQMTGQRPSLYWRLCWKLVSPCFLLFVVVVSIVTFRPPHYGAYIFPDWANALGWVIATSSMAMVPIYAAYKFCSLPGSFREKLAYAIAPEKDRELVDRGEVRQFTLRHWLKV
Test [4] addresses Melatonin receptor type 1A (Homo sapiens) (UniProt P48039). The experiment in a line: Selectivity interaction (CEREP panel (Eurofins, radioligand binding assay, enzymes, GPCRS, transporters, and ion channels)) EUB0000308b MTNR1A. The following applies: at 10 µM.
Test [5] has as its target Sodium-dependent noradrenaline transporter (Homo sapiens, UniProt P23975). The experiment in a line: Selectivity interaction (CEREP panel (Eurofins, radioligand binding assay, enzymes, GPCRS, transporters, and ion channels)) EUB0000308b SLC6A2. The following applies: at 10 µM.
The target of test [6] is Alpha-1D adrenergic receptor (Homo sapiens) (UniProt P25100). The following applies: at 10 µM.
Sequence of Alpha-1D adrenergic receptor (Homo sapiens) (P25100 whole entry): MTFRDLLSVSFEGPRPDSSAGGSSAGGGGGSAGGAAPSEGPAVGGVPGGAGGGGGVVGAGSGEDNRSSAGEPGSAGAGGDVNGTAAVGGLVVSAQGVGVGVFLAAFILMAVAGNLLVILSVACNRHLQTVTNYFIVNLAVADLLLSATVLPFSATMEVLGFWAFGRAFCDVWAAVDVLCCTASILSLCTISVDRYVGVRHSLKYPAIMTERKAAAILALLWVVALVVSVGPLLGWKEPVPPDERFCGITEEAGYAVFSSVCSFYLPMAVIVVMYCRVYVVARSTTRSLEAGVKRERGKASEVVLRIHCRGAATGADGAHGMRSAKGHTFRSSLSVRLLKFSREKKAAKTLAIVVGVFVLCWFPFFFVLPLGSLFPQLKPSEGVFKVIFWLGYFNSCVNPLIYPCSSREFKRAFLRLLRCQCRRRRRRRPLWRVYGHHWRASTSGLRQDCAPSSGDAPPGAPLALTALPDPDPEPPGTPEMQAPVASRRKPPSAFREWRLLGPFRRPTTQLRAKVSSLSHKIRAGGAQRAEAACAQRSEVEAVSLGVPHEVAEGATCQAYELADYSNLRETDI
The target in test [7] is T2, Alpha-1A adrenergic receptor (Homo sapiens) (UniProt P35348).
T2 sequence (whole entry): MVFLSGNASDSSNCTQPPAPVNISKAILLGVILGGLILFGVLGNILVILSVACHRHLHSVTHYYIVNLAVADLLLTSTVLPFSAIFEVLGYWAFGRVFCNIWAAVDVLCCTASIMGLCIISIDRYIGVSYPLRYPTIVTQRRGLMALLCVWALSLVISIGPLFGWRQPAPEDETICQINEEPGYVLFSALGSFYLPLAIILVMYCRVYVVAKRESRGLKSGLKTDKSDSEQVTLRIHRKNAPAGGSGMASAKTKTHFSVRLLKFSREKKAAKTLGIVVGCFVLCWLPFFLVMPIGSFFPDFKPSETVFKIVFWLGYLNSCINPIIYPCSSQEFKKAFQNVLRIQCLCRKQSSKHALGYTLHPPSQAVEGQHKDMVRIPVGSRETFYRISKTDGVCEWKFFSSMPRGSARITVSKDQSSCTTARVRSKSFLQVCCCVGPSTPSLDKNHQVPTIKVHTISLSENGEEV
The conditions noted are these: at 10 µM.

Test [8] deals with T3, Alpha-1B adrenergic receptor (Homo sapiens, UniProt P35368).
T3 sequence (P35368 whole entry): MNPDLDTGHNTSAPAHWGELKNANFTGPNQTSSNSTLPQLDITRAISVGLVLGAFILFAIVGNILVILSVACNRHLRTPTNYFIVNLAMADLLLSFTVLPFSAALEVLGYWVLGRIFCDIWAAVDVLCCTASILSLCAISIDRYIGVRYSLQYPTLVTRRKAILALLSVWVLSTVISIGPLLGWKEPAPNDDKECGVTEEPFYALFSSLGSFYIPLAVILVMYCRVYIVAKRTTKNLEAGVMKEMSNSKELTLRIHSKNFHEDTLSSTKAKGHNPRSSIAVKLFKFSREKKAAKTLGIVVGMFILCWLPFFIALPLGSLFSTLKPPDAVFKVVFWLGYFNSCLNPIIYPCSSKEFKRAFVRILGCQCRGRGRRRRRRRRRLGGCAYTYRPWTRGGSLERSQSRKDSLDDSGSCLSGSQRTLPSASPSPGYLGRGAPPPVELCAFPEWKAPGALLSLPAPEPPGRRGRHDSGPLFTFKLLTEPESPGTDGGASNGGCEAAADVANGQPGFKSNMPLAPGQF
The experiment in a line: Selectivity interaction (Binding assay) EUB0000341aCl ADRA1B.

Test [9] has as its system Tyrosine-protein kinase ABL1 (Homo sapiens), P00519 [M351T]. Briefly: (§1) Selectivity interaction (KinomeScan (DiscoverX)) EUB0000341aCl ABL1. The following applies: at 1 µM.
For test [10], the system named is Tyrosine-protein kinase ABL1 (Homo sapiens), P00519 [F317L]. The test is described as §1. The conditions noted are these: at 1 µM.
The subject of test [11] is Tyrosine-protein kinase ABL1 (Homo sapiens), P00519 [T315I]. Described as §1. The following applies: at 1 µM.
The target of test [12] is Dual specificity tyrosine-phosphorylation-regulated kinase 1B (Homo sapiens, UniProt Q9Y463). The experiment in a line: Selectivity interaction (KinomeScan (DiscoverX)) EUB0000341aCl DYRK1B. The conditions noted are these: at 1 µM.
Test [13] deals with T4, Alpha-1A adrenergic receptor (Homo sapiens, UniProt P35348).
T4 sequence (P35348 whole entry): T2 sequence (whole entry)
Briefly: Selectivity interaction (Binding assay) EUB0000341aCl ADRA1A.

Test [14] addresses NT-3 growth factor receptor (Homo sapiens, UniProt Q16288). Briefly: Selectivity interaction (KinomeScan (DiscoverX)) EUB0000341aCl NTRK3. The following applies: at 1 µM.
For test [15], the target named is T5, Alpha-2B adrenergic receptor (Homo sapiens) (UniProt P18089).
T5 sequence (whole entry): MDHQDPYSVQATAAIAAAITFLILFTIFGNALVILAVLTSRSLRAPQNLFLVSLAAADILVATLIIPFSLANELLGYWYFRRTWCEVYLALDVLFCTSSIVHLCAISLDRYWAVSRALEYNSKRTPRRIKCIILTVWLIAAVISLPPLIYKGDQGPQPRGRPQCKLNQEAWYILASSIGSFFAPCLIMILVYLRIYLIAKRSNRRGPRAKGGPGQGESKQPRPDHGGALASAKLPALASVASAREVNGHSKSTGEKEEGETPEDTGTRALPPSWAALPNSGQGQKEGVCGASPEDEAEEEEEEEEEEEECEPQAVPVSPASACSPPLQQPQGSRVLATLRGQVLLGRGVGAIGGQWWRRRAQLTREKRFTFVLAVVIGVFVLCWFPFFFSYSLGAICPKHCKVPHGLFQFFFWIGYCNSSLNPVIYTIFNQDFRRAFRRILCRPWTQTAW
Briefly: Selectivity interaction (GPCR panel (PDSP screen)) EUB0000300bCl ADRA2B. The conditions noted are these: at 10 µM.

The target in test [16] is T2, Alpha-1A adrenergic receptor (Homo sapiens). Briefly: (§2) Selectivity interaction (GPCR panel (PDSP screen)) EUB0000300bCl ADRA1A. The conditions noted are these: at 10 µM.
Test [17] addresses Tyrosine-protein kinase receptor TYRO3 (Homo sapiens) (UniProt Q06418). The experiment in a line: Selectivity interaction (KinomeScan (DiscoverX)) EUB0000300bCl TYRO3. The following applies: at 1 µM.
Test [18] deals with Mitogen-activated protein kinase 6 (Homo sapiens) (UniProt Q16659). Briefly: Selectivity interaction (KinomeScan (DiscoverX)) EUB0000300bCl MAPK6. The following applies: at 1 µM.
In test [19] the target is T3, Alpha-1B adrenergic receptor. Briefly: Selectivity interaction (GPCR panel (PDSP screen)) EUB0000300bCl ADRA1B.
The target in test [20] is T4, Alpha-1A adrenergic receptor. The description is as §2.
For test [21], the target named is Mitogen-activated protein kinase 10 (Homo sapiens, UniProt P53779). The experiment in a line: Selectivity interaction (KinomeScan (DiscoverX, competition-binding assay)) EUB0000353a MAPK10.
Sequence of Mitogen-activated protein kinase 10 (P53779 whole entry): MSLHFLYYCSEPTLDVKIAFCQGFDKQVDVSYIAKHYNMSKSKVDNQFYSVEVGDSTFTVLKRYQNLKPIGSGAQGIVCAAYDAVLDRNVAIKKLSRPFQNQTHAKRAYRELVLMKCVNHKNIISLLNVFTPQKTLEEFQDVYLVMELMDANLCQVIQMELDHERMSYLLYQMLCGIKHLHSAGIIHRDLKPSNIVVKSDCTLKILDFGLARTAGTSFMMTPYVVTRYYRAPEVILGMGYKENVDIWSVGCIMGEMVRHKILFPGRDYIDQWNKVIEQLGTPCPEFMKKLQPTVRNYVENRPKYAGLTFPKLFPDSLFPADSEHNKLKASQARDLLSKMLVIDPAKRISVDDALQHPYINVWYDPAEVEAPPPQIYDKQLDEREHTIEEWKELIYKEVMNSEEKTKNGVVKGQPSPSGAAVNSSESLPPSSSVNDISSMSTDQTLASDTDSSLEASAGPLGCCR
Test [22] has as its target Mitogen-activated protein kinase 8 (Homo sapiens, UniProt P45983). The experiment in a line: Selectivity interaction (KinomeScan (DiscoverX, competition-binding assay)) EUB0000353a MAPK8.
In test [23] the target is Tyrosine-protein kinase BTK (Homo sapiens, UniProt Q06187). The experiment in a line: Selectivity interaction (KinomeScan (DiscoverX, competition-binding assay)) EUB0000353a BTK.
Sequence of Tyrosine-protein kinase BTK (Q06187 whole entry): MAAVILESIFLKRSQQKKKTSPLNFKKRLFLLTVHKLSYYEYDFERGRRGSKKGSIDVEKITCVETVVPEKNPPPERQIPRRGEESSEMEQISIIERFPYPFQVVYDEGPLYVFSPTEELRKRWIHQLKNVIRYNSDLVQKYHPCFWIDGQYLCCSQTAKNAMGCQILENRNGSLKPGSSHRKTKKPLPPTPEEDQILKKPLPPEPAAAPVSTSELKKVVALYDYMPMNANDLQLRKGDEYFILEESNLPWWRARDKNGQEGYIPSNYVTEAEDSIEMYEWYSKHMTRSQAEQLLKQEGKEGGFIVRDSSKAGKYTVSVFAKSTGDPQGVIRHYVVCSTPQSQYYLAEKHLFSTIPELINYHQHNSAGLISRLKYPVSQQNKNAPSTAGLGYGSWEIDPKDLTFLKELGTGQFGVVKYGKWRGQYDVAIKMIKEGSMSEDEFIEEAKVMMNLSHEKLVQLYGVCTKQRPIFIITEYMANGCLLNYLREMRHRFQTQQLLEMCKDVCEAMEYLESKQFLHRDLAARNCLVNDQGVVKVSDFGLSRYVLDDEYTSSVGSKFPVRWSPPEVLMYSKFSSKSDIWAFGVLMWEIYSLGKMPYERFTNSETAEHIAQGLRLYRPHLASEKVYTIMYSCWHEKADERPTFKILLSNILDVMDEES

The structures appear in SMILES notation.

Sequence of Tyrosine-protein kinase receptor TYRO3 (Homo sapiens) (Q06418 whole entry): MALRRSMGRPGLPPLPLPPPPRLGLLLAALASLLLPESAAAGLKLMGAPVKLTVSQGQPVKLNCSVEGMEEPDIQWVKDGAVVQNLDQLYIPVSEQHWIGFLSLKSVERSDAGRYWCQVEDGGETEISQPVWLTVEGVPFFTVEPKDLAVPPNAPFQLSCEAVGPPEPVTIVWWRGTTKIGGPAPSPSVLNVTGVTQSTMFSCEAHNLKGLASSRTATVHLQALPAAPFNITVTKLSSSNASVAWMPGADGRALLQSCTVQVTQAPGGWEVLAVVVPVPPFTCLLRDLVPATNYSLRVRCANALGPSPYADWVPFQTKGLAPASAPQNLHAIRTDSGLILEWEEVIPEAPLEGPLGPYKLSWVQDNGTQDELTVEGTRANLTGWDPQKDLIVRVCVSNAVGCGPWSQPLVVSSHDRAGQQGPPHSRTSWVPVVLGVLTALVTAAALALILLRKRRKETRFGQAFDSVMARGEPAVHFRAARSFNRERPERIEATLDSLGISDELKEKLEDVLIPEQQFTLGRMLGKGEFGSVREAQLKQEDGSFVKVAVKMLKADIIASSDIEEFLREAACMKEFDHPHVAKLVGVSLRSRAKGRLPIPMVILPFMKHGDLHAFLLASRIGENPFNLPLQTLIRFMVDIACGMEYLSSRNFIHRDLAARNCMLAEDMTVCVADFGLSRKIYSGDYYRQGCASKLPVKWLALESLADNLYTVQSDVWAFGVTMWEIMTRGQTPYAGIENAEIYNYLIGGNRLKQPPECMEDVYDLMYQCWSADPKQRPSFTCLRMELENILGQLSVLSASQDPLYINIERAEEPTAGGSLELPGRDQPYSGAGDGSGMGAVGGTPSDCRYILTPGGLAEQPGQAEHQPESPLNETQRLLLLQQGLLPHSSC
Sequence of Sodium-dependent noradrenaline transporter (P23975 whole entry): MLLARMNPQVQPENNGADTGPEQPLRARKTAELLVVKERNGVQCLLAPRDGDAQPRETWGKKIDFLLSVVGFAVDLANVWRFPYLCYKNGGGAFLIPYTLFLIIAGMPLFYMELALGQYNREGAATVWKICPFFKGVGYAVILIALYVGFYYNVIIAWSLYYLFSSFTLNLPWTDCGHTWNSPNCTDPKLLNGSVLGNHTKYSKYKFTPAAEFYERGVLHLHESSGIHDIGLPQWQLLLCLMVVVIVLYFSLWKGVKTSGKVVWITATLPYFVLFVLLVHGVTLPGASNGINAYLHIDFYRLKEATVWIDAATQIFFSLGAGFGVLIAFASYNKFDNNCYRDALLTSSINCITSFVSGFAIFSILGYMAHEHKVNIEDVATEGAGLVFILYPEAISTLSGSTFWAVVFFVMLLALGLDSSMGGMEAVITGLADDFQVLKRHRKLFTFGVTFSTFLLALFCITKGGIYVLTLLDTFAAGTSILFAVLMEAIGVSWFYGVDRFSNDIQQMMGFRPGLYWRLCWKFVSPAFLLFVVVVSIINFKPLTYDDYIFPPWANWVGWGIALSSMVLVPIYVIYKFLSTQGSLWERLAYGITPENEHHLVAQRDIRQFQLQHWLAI
Sequence of NT-3 growth factor receptor (Q16288 32-839 limits assumed): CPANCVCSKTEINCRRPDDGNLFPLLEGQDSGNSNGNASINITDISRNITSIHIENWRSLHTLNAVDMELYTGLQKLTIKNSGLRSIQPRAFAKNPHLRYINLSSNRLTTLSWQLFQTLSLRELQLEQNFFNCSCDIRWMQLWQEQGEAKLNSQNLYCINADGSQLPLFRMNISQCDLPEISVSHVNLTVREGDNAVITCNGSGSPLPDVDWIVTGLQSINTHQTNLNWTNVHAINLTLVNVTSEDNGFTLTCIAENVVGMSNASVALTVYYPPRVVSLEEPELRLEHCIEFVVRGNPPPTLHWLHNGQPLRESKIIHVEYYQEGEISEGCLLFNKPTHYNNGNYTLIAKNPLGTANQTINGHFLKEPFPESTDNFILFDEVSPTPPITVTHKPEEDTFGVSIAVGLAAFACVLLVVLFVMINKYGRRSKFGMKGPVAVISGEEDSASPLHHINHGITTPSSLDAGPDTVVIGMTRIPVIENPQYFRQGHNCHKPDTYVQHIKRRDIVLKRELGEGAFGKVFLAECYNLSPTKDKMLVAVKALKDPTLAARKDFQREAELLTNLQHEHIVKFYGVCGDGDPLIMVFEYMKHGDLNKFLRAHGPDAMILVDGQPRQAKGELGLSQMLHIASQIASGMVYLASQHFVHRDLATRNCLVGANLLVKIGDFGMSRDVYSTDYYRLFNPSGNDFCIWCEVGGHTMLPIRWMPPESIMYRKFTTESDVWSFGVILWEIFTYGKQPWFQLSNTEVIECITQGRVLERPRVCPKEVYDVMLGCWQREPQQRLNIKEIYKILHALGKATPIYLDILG
Sequence of Melatonin receptor type 1A (Homo sapiens) (P48039 whole entry): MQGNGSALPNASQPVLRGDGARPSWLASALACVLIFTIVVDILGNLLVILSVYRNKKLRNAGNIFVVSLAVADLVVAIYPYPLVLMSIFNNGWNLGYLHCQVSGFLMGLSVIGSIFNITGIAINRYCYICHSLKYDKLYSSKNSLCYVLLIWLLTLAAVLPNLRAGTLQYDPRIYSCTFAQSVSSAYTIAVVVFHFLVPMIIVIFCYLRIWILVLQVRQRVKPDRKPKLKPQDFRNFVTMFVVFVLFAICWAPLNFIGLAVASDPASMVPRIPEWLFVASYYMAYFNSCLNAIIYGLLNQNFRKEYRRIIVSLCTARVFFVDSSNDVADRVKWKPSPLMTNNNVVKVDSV

For orientation: Ki means a measure of affinity in units of concentration, obtained from inhibition or displacement. `Clc1cccc(-c2nnnn2Cc2cccnc2)c1Cl` registered a Ki in [1] of 505 nM. In test [2], this molecule gave a % of control of 46%. Also, the % of inhibition in test [3] turned out to be 43%; in test [4] it was 31%; in [5], 32%.

Usually IC50 stands for the point on the concentration scale where inhibition reaches its midpoint. Low values mean inhibition by little substance, high ones a need for much substance. Take `C[C@@H](c1cccc(C#N)c1)n1cc(Cl)cc(C(N)=O)c1=N`: the % of inhibition in test [6] is 61%; in test [7], 55%. The IC50 in test [8] worked out at 1200 nM; in test [13], 2700 nM. Also, the % of control was found to be 0% in [9]; 0% in test [10]; 0% in test [11]; 37% in test [12]; 0% in test [14].

For `C[C@@H](c1cccc(CN)c1)n1cc(Cl)cc(C(N)=O)c1=N`, the results for the % of inhibition in test [15] and in test [16] were 80% and 84%, respectively. The % of control in test [17] was 33%; in [18], 0%. Also, the inhibitory constant (Ki) was > 1200 nM in [19] and > 2700 nM in test [20].

The Kd is a measure of binding affinity in units of concentration. The low end stands for tighter binding, the high end for weaker binding. `CN(C)[C@@H]1CCN(c2cc(-c3ccccc3)nc3ccnn23)C1` [(R)-ZINC-3573]: the Kd was > 30000 nM in [21], 19000 nM in test [22] and 27000 nM in test [23].

(Values after ChEMBL document CHEMBL5212743, “Selectivity Literature for EUbOPEN Chemogenomics Library wave 3” (2023).)
